Reference: patent publication US20260297060A1, “COMPOUNDS FOR THE DEGRADATION OF MUTANT BRAF” (C4 THERAPEUTICS, INC., priority 2023, published 2026)
Where two headings read alike, the source gives them in different places.

Experiments:
[1] = system: A375 human melanoma xenografts; assay: Example 8 efficacy study in A375 human melanoma xenografts (tumor volume, T/C, TGI); type: in vivo, BALB/c nude mice; settings: 10 mg/kg, p.o.
Protocol: (§1) For efficacy study, agents were tested in the A375 human melanoma xenografts model. Compound 8, Compound 26, and Compound 38 were administered to BALB/c nude mice bearing A375 xenografts from day 0 and dosed p.o. twice per day (BID). Compound 8 and Compound 26 were dosed at 10 mg/kg for 21 days. Compound 38 was dosed at 10 mg/kg for 10 days. The known BRAF inhibitor encorafenib was used as a positive control. encorafenib was administered from day 1 and dosed p.o. daily (QD) for 21 days and dosed at 35 mg/kg.
The A375 tumor cells were maintained in vitro in DMEM medium supplemented with […] and 1% Penicillin-Streptomycin at 37° C. in an atmosphere of 5% CO2 in air. The tumor cells were routinely subcultured twice weekly. The cells growing in an exponential growth phase were harvested and counted for tumor inoculation.
Each mouse was inoculated subcutaneously at the right flank with A375 cells (5×10^6) in 0.2 mL of PBS supplemented with Matrigel (PBS:Matrigel=1:1) for tumor development. Animals were grouped for treatment 16 days after tumor inoculation when the average tumor volume reached 234 mm^3 for efficacy study and 382 mm^3 for PKPD study. The test articles administration and the animal numbers in each group are shown in the above experimental tables.
Prior to the onset of drug treatment, mice were measured for tumor size in two dimensions using a caliper, and the tumor volume (mm^3) was calculated using formula V=0.5 a×b^2 where a and b are the long and short diameters of the tumor in mm, respectively. Mice were randomized into different treatment groups based on the tumor volume.
The major endpoint was to see if the tumor growth could be delayed or mice could be cured. The tumor size was then used for calculations of T/C value. The T/C value (in percent) is an indication of antitumor effectiveness; T and C are the mean volumes of the treated and control groups, respectively on specified day.
TGI was calculated for each group using the formula: TGI (%)=[1−(Ti−T0)/(Ci−C0)]×100; Ti is the average tumor volume of a treatment group on a given day, T0 is the average tumor volume of the treatment group on the day of treatment start, Ci is the average tumor volume of the vehicle control group on the same day with Ti, and C0 is the average tumor volume of the vehicle group on the day of treatment start.

[2] = Example 8 pharmacokinetics assay for efficacy study (plasma, liver); type: in vivo, BALB/c nude mice; settings: mouse, po, 10 mg/kg, p.o.
Protocol: as §1
The plasma samples were collected at predetermined time points for PK analysis. For non-termination plasma collection, blood samples were collected into the 1.5 mL Eppendorf tubes containing 3 μL of 0.5 M EDTA-K2. For termination plasma collection, the mice were euthanized at predetermined time points post the treatment and the blood samples were collected into the 1.5 mL Eppendorf tubes containing 15 μL of 0.5 M EDTA-K2. And then the anticoagulant blood samples were centrifuged at 2,500 g at 4° C. for 15 minutes. The plasma samples were separated into 2 aliquots. The 1st was used for PK analysis, and the 2nd served as backup. The samples were stored at −80° C. before bioanalysis.
Liver samples were collected at predetermined time points for PK analysis. The left lobe of the liver was dissected out and split into 2 parts. The 1st part was used for PK analysis and the 2nd part served as the backup for the study. The samples were transferred into pre-labeled tubes and quickly froze in liquid nitrogen within 2 minutes after dissection. The samples were stored at −80° C. before bioanalysis.
The harvested plasma and liver samples were processed for pharmacokinetics analysis by LC-MS/MS with a concentration range of 2.0~2000 ng/mL for encorafenib in plasma and liver homogenate, 10.0-10,000 ng/mL for Compound 8 and Compound 38 in plasma and liver homogenate, 20.0~20,000 ng/mL for Compound 26 in plasma and liver homogenate.

[3] = liver, BID × 21 days, read-out: Concentration in Liver (mean ± SEM)
[4] = plasma, BID × 21 days, read-out: Concentration in Plasma (mean ± SEM)

Row | Structure (SMILES) | T/C ([1]; BID × 21 days, PG-D21) [%] | TGI ([1]; BID × 21 days, PG-D21) [%] | Tumor Size on PG-D21 (Mean ± SEM) ([1]; BID × 21 days, PG-D21) [mm^3] | Tumor Volume (mean ± SEM) ([1]; BID × 21 days, day 0) [mm^3] | Tumor Volume (mean ± SEM) ([1]; BID × 21 days, day 3) [mm^3] | Tumor Volume (mean ± SEM) ([1]; BID × 21 days, day 6) [mm^3] | Tumor Volume (mean ± SEM) ([1]; BID × 21 days, day 9) [mm^3] | Tumor Volume (mean ± SEM) ([1]; BID × 21 days, day 13) [mm^3] | Tumor Volume (mean ± SEM) ([1]; BID × 21 days, day 17) [mm^3] | Tumor Volume (mean ± SEM) ([1]; BID × 21 days, day 21) [mm^3] | concentration at 6 h [2, 3] [ng/g] | concentration at 6 h [2, 4] [µg/mL] | further results
1 | CCN(C)S(=O)(=O)Nc1ccc(F)c(Oc2ccc3ncn([C@H]4COC5(CCN(C6CC7(C6)CN(c6cc8c(cc6F)c(N6CCC(=O)NC6=O)nn8C)C7)CC5)C4)c(=O)c3c2)c1C#N [Compound 26, (3R)-3-[6-[2-cyano-3-[[ethyl(methyl)sulfamoyl]amino]-6-fluoro-phenoxy]-4-oxo-quinazolin-3-yl]-8-[2-[3-(2,4-dioxohexahydropyrimidin-1-yl)-5-fluoro-1-methyl-indazol-6-yl]-2-azaspiro[3.3]heptan-6-yl]-1-oxa-8-azaspiro[4.5]decane] | 0.97 | 114.89 | 16 ± 2 | 234 ± 7 | 148 ± 10 | 57 ± 4 | 33 ± 3 | 21 ± 2 | 18 ± 1 | 16 ± 2 | 4720 ± 367 | 16 ± 2.06 | –
2 | CCN(C)S(=O)(=O)Nc1ccc(F)c(Oc2ccc3ncn([C@H]4COC5(CCC(N6CCC(c7cc8c(cc7F)c(N7CCC(=O)NC7=O)nn8C)C(F)(F)C6)CC5)C4)c(=O)c3c2)c1C#N (single isomer, unassigned) [Compound 38] | – | – | – | – | – | – | – | – | – | – | – | – | T/C ([1]; BID × 10 days, PG-D9): 4.30%; TGI ([1]; BID × 10 days, PG-D9): 134.38%; Tumor Size on PG-D9 (mean ± SEM) ([1]; BID × 10 days, PG-D9): 35 ± 3 mm^3; Tumor Volume (mean ± SEM) ([1]; BID × 10 days, day 0): 234 ± 7 mm^3; Tumor Volume (mean ± SEM) ([1]; BID × 10 days, day 3): 134 ± 7 mm^3; Tumor Volume (mean ± SEM) ([1]; BID × 10 days, day 6): 67 ± 7 mm^3; Tumor Volume (mean ± SEM) ([1]; BID × 10 days, day 9): 35 ± 3^b mm^3; concentration at 6 h ([2]; liver, BID × 10 days, read-out: Concentration in Liver (mean ± SEM)): 17200 ± 2570 ng/g; concentration at 6 h ([2]; plasma, BID × 10 days, read-out: Concentration in Plasma (mean ± SEM)): 18.3 ± 2.24 µg/mL
3 | CCN(C)S(=O)(=O)Nc1ccc(F)c(Oc2ccc3ncn(C4CC5(CCN(C6CCC(c7cc8c(cc7F)c(N7CCC(=O)NC7=O)nn8C)CC6)CC5)C4)c(=O)c3c2)c1C#N (single isomer, unassigned) [Compound 8, 6-[2-cyano-3-[[ethyl(methyl)sulfamoyl]amino]-6-fluoro-phenoxy]-3-[7-[4-[3-(2,4-dioxohexahydropyrimidin-1-yl)-5-fluoro-1-methyl-indazol-6-yl]cyclohexyl]-7-azaspiro[3.5]nonan-2-yl]-4-oxo-quinazoline] | 1.29 | 114.48 | 22 ± 3 | 234 ± 7 | 185 ± 6 | 105 ± 9 | 57 ± 4 | 32 ± 4 | 28 ± 3 | 22 ± 3 | 738 ± 299 | 0.984 ± 0.364 | –
